Several values for one entry are separate records, joined by “and”; a condition that tells them apart may be missing. Identical values can stand only once. Entries after “also recorded” stand apart in the source; their conditions may differ. Like-named read-outs stand apart in the source and are kept apart here.
How the values were obtained:
PC3 cells = experiment: Prostate cancer cell line proliferation screening (GR), PC3; type: cell-based, human; conditions: 10 µM, 48 h
Method: Next, we tested the effect of compounds 1a–1e on prostate cancer derived cell lines. The anti-proliferative activity was determined in vitro by adding 10 µM compound to each of three prostate cancer cell lines (LNCaP, DU145, and PC3). As an additional comparison, immortalized non-cancerous fibroblasts (BJ hTERT) were used. These cancer cell lines are considered the classic standard of PCa cell culture. Since these cell lines grew at very different rates, inhibition of growth rate (GR) was used as a metric. All compounds except 1e were non-toxic to non-cancerous cells. Compounds 1a and 1c were both cytotoxic in the PC3 cell line (Figure 3). […] DU145 cells were weakly affected by only compound 1e with growth rate inhibition more than 50% (GR < 0.5). […] We observed substantial susceptibility of PC3 cells in comparison to DU145 (see Supplementary Materials S3 for GR50 in PC3 cells). These two cell lines are similar in many respects. […] However, they differ in their origins, PC3 being derived from a lumbar vertebral metastatic prostate tumour and DU145 from a brain metastatic prostate tumour. […] By observing a uniform response of all cell lines used in the present study to 5-fluorouracil (5-FU), we were able to rule out any general cell dependent variability in chemosensitivity towards anti-metabolite treatment. Still, chemoresistance in PC3 and DU145 may be mediated by other mechanisms. While AR also functions as a tumour suppressor inhibiting cell proliferation, it is possible in AR deprived cells to observe growth inhibition when cells retain necessary coregulators. […]
(§1) Cells were grown to approximately 80% confluence in 150 mm culture dishes and harvested by 0.25% Trypsin/EDTA (Gibco) treatment. Released cells were counted and seeded in 384 well plates (Falcon, ref. 353962) in 30 µl media with a cell count of 1500 (BJ cells, PC-3) or and 3500 (LNCaP (Lund)) cells per well. […] The cells incubated for 24 h, after which cell counts in wells of one 384-well plate were determined as described below (time zero). […]

[1] = target: T1, human cytochrome P450 17A1 (Homo sapiens, UniProt P05093); conditions: ref [10]; read-out: CYP17A1 Kd; cited from earlier work
T1 construct: made in house
T1 sequence (P05093 1-508): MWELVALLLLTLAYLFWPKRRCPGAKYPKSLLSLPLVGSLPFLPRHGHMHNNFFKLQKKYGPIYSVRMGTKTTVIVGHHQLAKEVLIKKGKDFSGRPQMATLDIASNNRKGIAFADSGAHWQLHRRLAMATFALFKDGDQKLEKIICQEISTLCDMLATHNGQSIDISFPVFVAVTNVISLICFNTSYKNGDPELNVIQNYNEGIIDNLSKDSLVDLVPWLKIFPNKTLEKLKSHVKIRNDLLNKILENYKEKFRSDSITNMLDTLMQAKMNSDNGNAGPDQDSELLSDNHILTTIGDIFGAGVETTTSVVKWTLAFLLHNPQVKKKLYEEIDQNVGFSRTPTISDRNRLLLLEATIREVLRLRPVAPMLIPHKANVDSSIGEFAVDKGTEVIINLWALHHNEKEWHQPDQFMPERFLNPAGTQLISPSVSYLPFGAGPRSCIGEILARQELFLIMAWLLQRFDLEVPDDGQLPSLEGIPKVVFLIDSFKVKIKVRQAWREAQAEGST

human CYP17A1 [2] = target: T2, human CYP17A1 (Homo sapiens, UniProt P05093); parameters: method as in PMID 28373265; conditions: ref [11]; cited from earlier work
T2 construct: made in house
T2 sequence (P05093 24-508 limits assumed): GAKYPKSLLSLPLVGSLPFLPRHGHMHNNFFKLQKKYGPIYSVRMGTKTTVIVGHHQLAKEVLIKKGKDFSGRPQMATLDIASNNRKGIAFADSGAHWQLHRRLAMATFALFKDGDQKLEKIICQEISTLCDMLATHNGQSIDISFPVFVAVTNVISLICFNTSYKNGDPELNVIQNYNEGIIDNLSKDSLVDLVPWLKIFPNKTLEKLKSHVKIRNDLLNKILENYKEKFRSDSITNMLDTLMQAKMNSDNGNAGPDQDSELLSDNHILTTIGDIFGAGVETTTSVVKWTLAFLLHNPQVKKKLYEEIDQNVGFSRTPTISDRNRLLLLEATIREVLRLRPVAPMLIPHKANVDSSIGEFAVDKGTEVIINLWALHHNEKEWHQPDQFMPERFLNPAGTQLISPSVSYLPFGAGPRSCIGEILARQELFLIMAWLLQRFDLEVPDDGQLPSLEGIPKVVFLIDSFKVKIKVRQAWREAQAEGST

[3] = target: T1, human cytochrome P450 17A1; experiment: Spectral binding assay (CYP17A1 ligand binding); conditions: purified recombinant human CYP17A1, spectral titration
From the text: The target compounds were initially tested for binding mode and affinity for CYP17A1 using a spectral binding assay. This assay can distinguish the mode of interaction, with a blue shift of the Soret absorbance occurring when ligand displaces water from the heme iron to generate a five-coordinate iron without direct coordination to the heme iron (type I, similar to most substrates) or a red shift of the Soret peak when the ligand nitrogen replaces the water to directly interact with the six-coordinate iron (type II, similar to many inhibitors). […] This 3-pyridyl fragment is also found in abiraterone.
Initial ligand binding was evaluated by measuring absorbance changes in CYP17A1 upon addition of ligands. Purified recombinant human cytochrome P450 17A1 enzyme (1 µM) in buffer (25 mM potassium phosphate, pH 7.4, 200 mM NaCl, 20% glycerol) was titrated with ligands. Ligands were dissolved in DMSO and added to three concentrations (500, 1000, and 2000 nM). The spectral intensity difference (ΔA) was measured as difference between […]. The Amin was typically at ~410 nm and Amax at ~440 nm for the type II changes observed for these ligands.
S2. Binding spectra and CYP IC50 curves
Difference spectrum of cytochrome P450 17A1 with vs. without compound 1a (2 µM).
All compounds are type II and display the same shift as the example above.
(§2) (1 picture or pasted object on this page, not shown here)

human CYP17A1 [4] = target: T2, human CYP17A1; experiment: Cytochrome P450 17A1 progesterone 17α-hydroxylation inhibition assay; type: biochemical; conditions: recombinant purified CYP17A1
Method: Regardless of their binding affinity, all compounds were tested for their ability to inhibit progesterone 17α-hydroxylation by recombinant purified CYP17A1 (Supplementary Materials S2).
Purified recombinant human CYP17A1 (20 pmol) and human full-length cytochrome P450 reductase (80 pmol) were used to convert progesterone (purchased from Acros Organics, Fair Lawn, NJ, USA) (6 µM) to 17α-hydroxyprogesterone. Test inhibitors were dissolved in DMSO and initially tested in concentrations ranging from 1.3 to 41 µM. In subsequent assays the range of inhibitor concentrations was optimized to best define the IC50 of individual compounds. Reactions were run and the 17α -hydroxyprogesterone product measured by LC-MS as previously published.
IC50 curves for compounds inhibiting CYP17A1 progesterone 17-hydroxylation (black circles),
CYP21A2 progesterone 21-hydroxylation (red diamonds), CYP3A4 nifedipine metabolism
(green squares), and CYP2D6 quinidine metabolism (blue triangles).
as §2

cytochrome P450 21A2 = target: T3, cytochrome P450 21A2 (Homo sapiens, UniProt P08686); experiment: CYP21A2 progesterone 21-hydroxylation inhibition assay; type: biochemical; conditions: for IC50: progesterone 21-hydroxylation
T3 construct: made in house
T3 sequence (P08686 1-495): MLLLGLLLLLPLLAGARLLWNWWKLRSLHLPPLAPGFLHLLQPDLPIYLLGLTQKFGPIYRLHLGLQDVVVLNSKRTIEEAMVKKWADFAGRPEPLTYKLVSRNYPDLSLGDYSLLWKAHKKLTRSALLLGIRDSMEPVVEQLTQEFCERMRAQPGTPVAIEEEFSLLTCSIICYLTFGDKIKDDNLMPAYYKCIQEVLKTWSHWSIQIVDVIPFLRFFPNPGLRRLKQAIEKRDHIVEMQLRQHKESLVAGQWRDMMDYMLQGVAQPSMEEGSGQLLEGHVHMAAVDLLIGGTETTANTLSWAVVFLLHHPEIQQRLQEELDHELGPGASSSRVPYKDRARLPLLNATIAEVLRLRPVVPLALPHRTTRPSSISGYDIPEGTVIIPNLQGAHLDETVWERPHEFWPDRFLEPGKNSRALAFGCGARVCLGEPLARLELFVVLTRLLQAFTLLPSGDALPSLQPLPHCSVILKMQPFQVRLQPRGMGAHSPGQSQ
From the text: (§3) In human drug metabolism, CYP3A4 and CYP2D6 are dominant enzymes and undesired inhibition could potentially alter the pharmacokinetics and reduce the clearance of co-administered drugs. CYP3A4 is particularly important in this respect, with a large and flexible active site able to accommodate many different molecular scaffolds including steroids. […] The most similar steroidogenic human enzyme to CYP17A1 is CYP21A2, which also uses progesterone as a substrate, in this case to form 21-hydroxyprogesterone. Undesired inhibition of this enzyme could adversely impact the biosynthesis of the corticosteroids cortisol and aldosterone which control stress/immune responses and blood pressure, respectively. Abiraterone itself has this liability and is thus co-administered with the synthetic corticosteroid prednisone. […] However, at the same time it might be possible to achieve similar results by altering the nitrogen atom position in the pyridine fragment in compound 1e. Further optimization of 1c is required to eliminate off-target effects on the steroidogenic human CYP21A2 enzyme to prevent disruption of glucocorticoid and mineralocorticoid biosynthesis in vivo. This might be achieved by adding substituents compatible with the CYP17A1 active site topography forming interactions with the bordering Arg239 and/or Asp298 residues, but incompatible with the more spatially constrained CYP21A2 active site, as has been accomplished for abiraterone.
(§4) Selected inhibitors were tested for off-target inhibition of purified recombinant human CYP3A4 nifedipine metabolism and CYP2D6 dextromethorphan metabolism as described with minor modifications. CYP3A4 nifedipine (purchased from Sigma-Aldrich, St. Louis, MO, USA) activity assays were carried out with 200 µM nifedipine for 30 min. The CYP2D6 dextrometorphan (purchased from Sigma-Aldrich, St. Louis, MO, USA) assays were carried out with 100 µM DXM. Inhibition of steroidogenic cytochrome P450 21A2 progesterone 21-hydroxylation was evaluated as reported.
(§5) IC50 curves for compounds inhibiting CYP17A1 progesterone 17-hydroxylation (black circles), […]

human CYP3A4 = target: T4, human CYP3A4 (Homo sapiens, UniProt P08684); experiment: CYP3A4 nifedipine metabolism inhibition assay; type: biochemical; conditions: concentrations up to 10 µM
T4 construct: made in house
From the text: as §3, with “Further optimization of 1c is required to eliminate off-target effects on the steroidogenic human CYP21A2 enzyme to prevent disruption of glucocorticoid and mineralocorticoid biosynthesis in vivo. This might be achieved by adding substituents compatible with the CYP17A1 active site topography forming interactions with the bordering Arg239 and/or Asp298 residues, but incompatible with the more spatially constrained CYP21A2 active site, as has been accomplished for abiraterone.” left out
Selected inhibitors were tested for off-target inhibition of purified recombinant human CYP3A4 nifedipine metabolism and CYP2D6 dextromethorphan metabolism as described with minor modifications. […] Inhibition of steroidogenic cytochrome P450 21A2 progesterone 21-hydroxylation was evaluated as reported. […]

CYP2D6 = target: T5, CYP2D6 (Homo sapiens, UniProt P10635); experiment: CYP2D6 dextromethorphan metabolism inhibition assay; type: biochemical; conditions: for IC50: dextromethorphan metabolism
T5 construct: made in house
From the text: as §3, §4, §5

DU145 cells = experiment: Prostate cancer cell line proliferation screening (GR), DU145; type: cell-based, human
Method: (§6) Next, we tested the effect of compounds 1a–1e on prostate cancer derived cell lines. The anti-proliferative activity was determined in vitro by adding 10 µM compound to each of three prostate cancer cell lines (LNCaP, DU145, and PC3). As an additional comparison, immortalized non-cancerous fibroblasts (BJ hTERT) were used. These cancer cell lines are considered the classic standard of PCa cell culture. Since these cell lines grew at very different rates, inhibition of growth rate (GR) was used as a metric. All compounds except 1e were non-toxic to non-cancerous cells. Compounds 1a and 1c were both cytotoxic in the PC3 cell line (Figure 3). […] DU145 cells were weakly affected by only compound 1e with growth rate inhibition more than 50% (GR < 0.5). […] We observed substantial susceptibility of PC3 cells in comparison to DU145 (see Supplementary Materials S3 for GR50 in PC3 cells). These two cell lines are similar in many respects. […]
as §1

BJ hTERT fibroblasts = experiment: Proliferation screening in non-cancerous fibroblasts; type: cell-based; conditions: 10 µM, 48 h
Method: as §6, §1

T5 sequence (P10635 whole entry): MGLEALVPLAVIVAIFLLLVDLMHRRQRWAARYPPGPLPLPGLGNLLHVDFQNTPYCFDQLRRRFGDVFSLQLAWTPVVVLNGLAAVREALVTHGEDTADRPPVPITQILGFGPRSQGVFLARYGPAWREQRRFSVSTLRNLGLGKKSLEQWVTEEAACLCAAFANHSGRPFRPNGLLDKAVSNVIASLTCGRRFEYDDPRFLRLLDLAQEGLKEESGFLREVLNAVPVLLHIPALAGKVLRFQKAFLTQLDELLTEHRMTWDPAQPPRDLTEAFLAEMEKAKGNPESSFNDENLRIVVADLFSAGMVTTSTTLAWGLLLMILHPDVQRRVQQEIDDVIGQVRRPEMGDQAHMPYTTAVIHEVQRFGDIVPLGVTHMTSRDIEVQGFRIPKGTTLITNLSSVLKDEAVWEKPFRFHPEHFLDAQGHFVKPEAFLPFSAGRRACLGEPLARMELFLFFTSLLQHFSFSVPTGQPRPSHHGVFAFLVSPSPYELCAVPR
T4 sequence (P08684 whole entry): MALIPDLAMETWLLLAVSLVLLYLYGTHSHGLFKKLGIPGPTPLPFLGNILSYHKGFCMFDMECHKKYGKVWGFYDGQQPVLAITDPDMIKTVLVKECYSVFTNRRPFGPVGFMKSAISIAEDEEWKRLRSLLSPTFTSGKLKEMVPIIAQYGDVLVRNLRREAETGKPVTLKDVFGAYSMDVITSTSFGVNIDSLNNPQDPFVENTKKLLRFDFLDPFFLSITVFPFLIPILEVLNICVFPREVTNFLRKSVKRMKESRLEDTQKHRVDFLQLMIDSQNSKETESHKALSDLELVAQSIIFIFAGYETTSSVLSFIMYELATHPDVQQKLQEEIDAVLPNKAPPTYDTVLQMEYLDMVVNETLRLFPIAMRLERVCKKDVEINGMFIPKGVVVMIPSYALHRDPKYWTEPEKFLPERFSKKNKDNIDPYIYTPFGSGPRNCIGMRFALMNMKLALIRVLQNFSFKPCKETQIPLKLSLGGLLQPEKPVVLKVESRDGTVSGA

C[C@]12CC[C@H](O)CC1=CC[C@@H]1[C@@H]2CC[C@]2(C)C(c3cccnc3)=CC[C@@H]12 [Abiraterone]
Antiproliferative response in PC3 cells (growth rate inhibition, in words) (PC3 cells): low antiproliferative activity | Kd [1]: < 100 nM | IC50 (human CYP17A1 [2]): 80 nM

c1ccc2c(c1)ccn2-c1ccc(Nc2ccncc2)cc1 [Compound 1e]
Kd [3]: 120 ± 34 nM | IC50 (human CYP17A1 [4]): 560 ± 100 nM | IC50 (cytochrome P450 21A2): 190 ± 30 nM | IC50 (human CYP3A4): > 10000 nM | IC50 (CYP2D6): 2500 ± 600 nM | Fold weaker inhibition of CYP2D6 than of CYP17A1 (CYP2D6; ratio of IC50 values): 4.5 fold | Growth rate inhibition value (GR) in DU145 cells (DU145 cells; 10 µM, 48 h): < 0.5 | inhibition at 10 µM (DU145 cells; Homo sapiens, DU-145, 48 h, read-out: Growth rate inhibition in DU145 cells): > 50%

c1ccc2c(c1)ncn2-c1ccc(Nc2ccncc2)cc1 [Compound 1a]
Kd [3]: 290 ± 55 nM | IC50 (human CYP17A1 [4]): 8000 nM and 8060 nM | Antiproliferative response in PC3 cells (growth rate inhibition, in words) (PC3 cells): cytotoxic

c1ccc(Nc2ccc(-n3cnc4ccccc43)cc2)cc1 [Compound 1d]
Kd [3]: 150 ± 37 nM | IC50 (human CYP17A1 [4]): 1760 ± 190 nM

c1ccc(Nc2ccc(-n3cnc4ccccc43)cc2)nc1 [Compound 1b]
Kd [3]: 420 ± 70 nM | IC50 (human CYP17A1 [4]): > 10000 nM

c1cncc(Nc2ccc(-n3cnc4ccccc43)cc2)c1 [Compound 1c]
Kd [3]: 96 ± 22 nM | IC50 (human CYP17A1 [4]): 830 ± 190 nM | IC50 (cytochrome P450 21A2): 1500 ± 670 nM | Selectivity for CYP17A1 over CYP21A2 inhibition (cytochrome P450 21A2; ratio of IC50 values): two-fold | IC50 (human CYP3A4): > 10000 nM | IC50 (CYP2D6): > 10000 nM | Antiproliferative response in PC3 cells (growth rate inhibition, in words) (PC3 cells): cytotoxic; also recorded: high cytotoxicity | Toxicity to non-cancerous cells (BJ hTERT fibroblasts) (BJ hTERT fibroblasts): non-toxicity

C[C@]12CC[C@H](O)CC1=CC[C@@H]1[C@@H]2CC[C@]2(C)C(n3cnc4ccccc43)=CC[C@@H]12 [Galeterone]
Kd [1]: < 100 nM | IC50 (human CYP17A1 [2]): 130 nM
